In patent US12139492B2 (Endotarget Inc., priority 2021, dated 2024):
Like-named read-outs stand apart in the source and are kept apart here.

Legend:
[1] = tested on: Mino cells; test: Antiproliferative effect, MTS cell viability assay, Mino cells; assay type: cell-based; conditions: Homo sapiens, Mino mantle cell lymphoma cells, read-out: IC50 (anti-proliferation) Mino cells
Outline: (§1)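 Absorbance at 490 nm of formazan, formed by metabolically active cells from MTS tetrazolium, served as the viability measure after a 72 h treatment across a 0.001–10 μM concentration series plus untreated control.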

[2] = molecular target: T1, BTK (Homo sapiens, UniProt Q06187); test: Degradation of BTK protein in JeKo-1 cells (Western blot; DC50, Dmax); conditions: JeKo-1 mantle cell lymphoma cells, various concentrations, 24 hours
T1 sequence (Q06187 whole entry): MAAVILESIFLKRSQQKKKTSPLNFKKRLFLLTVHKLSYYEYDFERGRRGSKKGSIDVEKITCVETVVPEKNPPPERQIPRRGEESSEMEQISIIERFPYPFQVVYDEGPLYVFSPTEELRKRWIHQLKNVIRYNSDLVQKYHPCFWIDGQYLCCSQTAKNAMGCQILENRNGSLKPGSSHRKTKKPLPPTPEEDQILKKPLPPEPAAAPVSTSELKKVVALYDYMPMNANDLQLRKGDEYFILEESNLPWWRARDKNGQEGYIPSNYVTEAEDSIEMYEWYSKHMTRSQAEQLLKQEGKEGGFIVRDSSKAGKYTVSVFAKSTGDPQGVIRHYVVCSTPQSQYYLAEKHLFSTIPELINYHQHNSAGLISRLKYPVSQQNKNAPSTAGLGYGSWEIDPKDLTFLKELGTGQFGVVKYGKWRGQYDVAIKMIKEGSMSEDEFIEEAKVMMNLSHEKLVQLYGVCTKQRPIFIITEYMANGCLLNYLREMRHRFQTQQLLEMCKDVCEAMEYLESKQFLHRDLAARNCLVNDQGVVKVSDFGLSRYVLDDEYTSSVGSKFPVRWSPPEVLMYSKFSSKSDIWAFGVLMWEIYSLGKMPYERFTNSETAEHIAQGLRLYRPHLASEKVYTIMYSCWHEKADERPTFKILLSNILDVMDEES
Method: (§2) Namalwa, JeKo-1, or Mino cells were plated in 24-well plates at a density of 10^5 cells/well. Media containing various drug concentrations were added on the day following plating (day 0) and allowed to incubate for 24 hours for Western blot. Media with the tested compound was changed every other day. […] Media were removed and dishes were washed with 1×DPBS. Lysates were made by adding 150 μL of complete lysis solution and scraping cells into a 1.5 mL microcentrifuge tube. Lysates were placed on a rotisserie at 4° C. for 30 min and then spun at 4° C. at 12000 rcf for 10 min. Supernatants were assayed for protein content, snap-frozen, and stored a −80° C. if not run immediately. Then 50 μg of protein was subjected to Western blot protocol. […] They were then imaged on a LICOR infrared scanner.

[3] = molecular target: T1, BTK; test: BTK degradation, DC50 and Dmax of Table 1 (cell line not given); assay type: cell-based; parameters: endogenous in cells; conditions: for DC50: concentration giving 50% reduction of BTK expression level
[4] = molecular target: T1, BTK; test: Degradation of BTK protein in Namalwa cells (Western blot; DC50, Dmax); conditions: for degradation of BTK protein / degradation of BTK protein at 10^−6 M: Namalwa B lymphocyte cells, Western blot; for degradation of BTK protein: various concentrations, 24 hours; for DC50: read-out: DC50 (BTK degradation), concentration giving 50% reduction of BTK expression level, cell line not given; for Dmax: read-out: Dmax (BTK degradation)
[5] = tested on: JeKo-1 cells; test: Antiproliferative effect, MTS cell viability assay, JeKo-1 cells; assay type: cell-based; conditions: Homo sapiens; JeKo-1 mantle cell lymphoma cells; read-out: IC50 (anti-proliferation) JeKO-1 cells
Outline: as §1

[6] = molecular target: T1, BTK; test: Degradation of BTK protein in Mino cells (Western blot; DC50, Dmax); conditions: Mino mantle cell lymphoma cells, various concentrations, 24 hours
Method: as §2

SMILES	degradation of BTK protein [2]	Dmax [3]	DC50 [3]	degradation of BTK protein [4]	degradation of BTK protein at 10^−6 M [4]	DC50 [4]	Dmax [4]	degradation of BTK protein [6]	IC50 [1]	IC50 [5]	IC50 ([1]; MINO)
Nc1ncnc2c1c(-c1ccc(Oc3ccccc3)cc1)nn2C1CCN(CC2CCN(C(=O)N3CCN(c4ccc5c(c4)CN(C4CCC(=O)NC4=O)C5=O)CC3)CC2)CC1 (stereo not shown) [Compound 36, 3-(5-(4-(4-((4-(4-amino-3-(4-phenoxyphenyl)-1H-pyrazolo(3,4-d)pyrimidin-1-yl)piperidin-1-yl)methyl)piperidine-1-carbonyl)piperazin-1-yl)-1-oxoisoindolin-2-yl)piperidine-2,6-dione]	dose-dependent degradation	> 90%	< 0.01 µM	dose-dependent degradation	–	–	–	–	< 1 µM	< 1 µM	–
Nc1ncnc2c1c(-c1ccc(Oc3ccccc3)cc1)nn2C1CCN(C(=O)N2CCC(CN3CCN(c4ccc5c(c4)CN(C4CCC(=O)NC4=O)C5=O)CC3)CC2)CC1 (stereo not shown) [Compound 86, 3-(5-(4-((1-(4-(4-amino-3-(4-phenoxyphenyl)-1H-pyrazolo(3,4-d)pyrimidin-1-yl)piperidine-1-carbonyl)piperidin-4-yl)methyl)piperazin-1-yl)-1-oxoisoindolin-2-yl)piperidine-2,6-dione]	dose-dependent degradation	> 90%	< 0.01 µM	dose-dependent degradation	–	–	–	–	–	< 1 µM	< 1 µM
Nc1ncnc2c1c(-c1ccc(Oc3ccccc3)cc1)nn2[C@@H]1CCCN(C2CCN(C(=O)N3CCN(c4ccc5c(c4)C(=O)N(C4CCC(=O)NC4=O)C5=O)CC3)CC2)C1 (stereo partly drawn) [Compound 159, 5-(4-((R)-3-(4-amino-3-(4-phenoxyphenyl)-1H-pyrazolo(3,4-d)pyrimidin-1-yl)-(1,4′-bipiperidine)-1′-carbonyl)piperazin-1-yl)-2-(2,6-dioxopiperidin-3-yl)isoindoline-1,3-dione]	–	> 50%	> 0.05 µM	–	degradation	–	–	–	–	> 10 µM	1 to 10 µM
Nc1ncnc2c1c(-c1ccc(Oc3ccccc3)cc1)nn2[C@@H]1CCCN(C2CCN(C(=O)N3CCC(CN4CCN(c5ccc6c(c5)C(=O)N(C5CCC(=O)NC5=O)C6=O)CC4)CC3)CC2)C1 (stereo partly drawn) [Compound 169, 5-(4-((1-((R)-3-(4-amino-3-(4-phenoxyphenyl)-1H-pyrazolo(3,4-d)pyrimidin-1-yl)-(1,4′-bipiperidine)-1′-carbonyl)piperidin-4-yl)methyl)piperazin-1-yl)-2-(2,6-dioxopiperidin-3-yl)isoindoline-1,3-dione]	–	> 90%	0.01 to 0.05 µM	dose-dependent degradation	degradation	–	–	–	–	< 1 µM	1 to 10 µM
Nc1ncnc2c1c(-c1ccc(Oc3ccccc3)cc1)nn2[C@@H]1CCCN(C2CCN(C(=O)N3CCC(CCN4CCN(c5ccc6c(c5)C(=O)N(C5CCC(=O)NC5=O)C6=O)CC4)CC3)CC2)C1 (stereo partly drawn) [Compound 181, 5-(4-(2-(1-((R)-3-(4-amino-3-(4-phenoxyphenyl)-1H-pyrazolo(3,4-d)pyrimidin-1-yl)-(1,4′-bipiperidine)-1′-carbonyl)piperidin-4-yl)ethyl)piperazin-1-yl)-2-(2,6-dioxopiperidin-3-yl)isoindoline-1,3-dione]	–	> 75%	0.01 to 0.05 µM	dose-dependent degradation	degradation	–	–	–	–	1 to 10 µM	1 to 10 µM
Nc1ncnc2c1c(-c1ccc(Oc3ccccc3)cc1)nn2C1CCN(C2CCN(CC3CN(c4ccc5c(c4)C(=O)N(C4CCC(=O)NC4=O)C5=O)C3)C2)CC1 (stereo not shown) [Compound 425, 5-(3-((3-(4-(4-amino-3-(4-phenoxyphenyl)-1H-pyrazolo(3,4-d)pyrimidin-1-yl)piperidin-1-yl)pyrrolidin-1-yl)methyl)azetidin-1-yl)-2-(2,6-dioxopiperidin-3-yl)isoindoline-1,3-dione]	dose-dependent degradation	–	–	dose-dependent degradation	–	0.01 to 0.05 µM	> 90%	–	–	1 to 10 µM	1 to 10 µM
Nc1ncnc2c1c(-c1ccc(Oc3ccccc3)cc1)nn2C1CCN(C2CCN(CC3CCN(c4ccc5c(c4)C(=O)N(C4CCC(=O)NC4=O)C5=O)CC3)C2)CC1 (stereo not shown) [Compound 449, 5-(4-((3-(4-(4-amino-3-(4-phenoxyphenyl)-1H-pyrazolo(3,4-d)pyrimidin-1-yl)piperidin-1-yl)pyrrolidin-1-yl)methyl)piperidin-1-yl)-2-(2,6-dioxopiperidin-3-yl)isoindoline-1,3-dione]	–	–	–	dose-dependent degradation	–	< 0.01 µM	> 90%	dose-dependent degradation	–	< 1 µM	< 1 µM

The next lines start with results.

degradation of BTK protein [2]	Dmax [3]	DC50 [3]	degradation of BTK protein [4]	degradation of BTK protein at 10^−6 M [4]	DC50 [4]	Dmax [4]	degradation of BTK protein [6]	SMILES	IC50 [1]	IC50 [5]	IC50 ([1]; MINO)
–	> 50%	> 0.05 µM	–	degradation	–	–	–	Nc1ncnc2c1c(-c1ccc(Oc3ccccc3)cc1)nn2C1CCN(C(=O)N2CCN(c3ccc4c(c3)C(=O)N(C3CCC(=O)NC3=O)C4=O)CC2)CC1 (stereo not shown) [Compound 75, 5-(4-(4-(4-amino-3-(4-phenoxyphenyl)-1H-pyrazolo(3,4-d)pyrimidin-1-yl)piperidine-1-carbonyl)piperazin-1-yl)-2-(2,6-dioxopiperidin-3-yl)isoindoline-1,3-dione]	–	> 10 µM	> 10 µM
–	> 75%	> 0.05 µM	–	degradation	–	–	–	Nc1ncnc2c1c(-c1ccc(Oc3ccccc3)cc1)nn2C1CCN(C(=O)N2CCC(C3CCN(c4ccc5c(c4)C(=O)N(C4CCC(=O)NC4=O)C5=O)CC3)CC2)CC1 (stereo not shown) [Compound 79, 5-(1′-(4-(4-amino-3-(4-phenoxyphenyl)-1H-pyrazolo(3,4-d)pyrimidin-1-yl)piperidine-1-carbonyl)-(4,4′-bipiperidin)-1-yl)-2-(2,6-dioxopiperidin-3-yl)isoindoline-1,3-dione]	–	> 10 µM	> 10 µM
–	> 75%	> 0.05 µM	–	degradation	–	–	–	Nc1ncnc2c1c(-c1ccc(Oc3ccccc3)cc1)nn2C1CCN(C(=O)N2CCC(C3CCN(c4ccc5c(c4)CN(C4CCC(=O)NC4=O)C5=O)CC3)CC2)CC1 (stereo not shown) [Compound 80, 3-(5-(1′-(4-(4-amino-3-(4-phenoxyphenyl)-1H-pyrazolo[3,4-d]pyrimidin-1-yl)piperidine-1-carbonyl)-[4,4′-bipiperidin]-1-yl)-1-oxoisoindolin-2-yl)piperidine-2,6-dione]	–	> 10 µM	> 10 µM
–	> 75%	> 0.05 µM	dose-dependent degradation	–	–	–	–	Nc1ncnc2c1c(-c1ccc(Oc3ccccc3)cc1)nn2C1CCN(C(=O)N2CCC(N3CCN(c4ccc5c(c4)C(=O)N(C4CCC(=O)NC4=O)C5=O)CC3)CC2)CC1 (stereo not shown) [Compound 81, 5-(4-(1-(4-(4-amino-3-(4-phenoxyphenyl)-1H-pyrazolo(3,4-d)pyrimidin-1-yl)piperidine-1-carbonyl)piperidin-4-yl)piperazin-1-yl)-2-(2,6-dioxopiperidin-3-yl)isoindoline-1,3-dione]	–	> 10 µM	> 10 µM
–	> 90%	< 0.01 µM	dose-dependent degradation	degradation	–	–	–	Nc1ncnc2c1c(-c1ccc(Oc3ccccc3)cc1)nn2C1CCN(C(=O)N2CCC(CN3CCN(c4ccc5c(c4)C(=O)N(C4CCC(=O)NC4=O)C5=O)CC3)CC2)CC1 (stereo not shown) [Compound 85, 5-(4-((1-(4-(4-amino-3-(4-phenoxyphenyl)-1H-pyrazolo(3,4-d)pyrimidin-1-yl)piperidine-1-carbonyl)piperidin-4-yl)methyl)piperazin-1-yl)-2-(2,6-dioxopiperidin-3-yl)isoindoline-1,3-dione]	–	< 1 µM	< 1 µM
–	> 90%	0.01 to 0.05 µM	dose-dependent degradation	degradation	–	–	–	Nc1ncnc2c1c(-c1ccc(Oc3ccccc3)cc1)nn2C1CCN(C(=O)N2CCC(CCN3CCN(c4ccc5c(c4)C(=O)N(C4CCC(=O)NC4=O)C5=O)CC3)CC2)CC1 (stereo not shown) [Compound 93, 5-(4-(2-(1-(4-(4-amino-3-(4-phenoxyphenyl)-1H-pyrazolo(3,4-d)pyrimidin-1-yl)piperidine-1-carbonyl)piperidin-4-yl)ethyl)piperazin-1-yl)-2-(2,6-dioxopiperidin-3-yl)isoindoline-1,3-dione]	–	1 to 10 µM	1 to 10 µM
–	> 75%	> 0.05 µM	dose-dependent degradation	degradation	–	–	–	Nc1ncnc2c1c(-c1ccc(Oc3ccccc3)cc1)nn2[C@@H]1CCCN(C2CCN(C(=O)N3CCC(C4CCN(c5ccc6c(c5)C(=O)N(C5CCC(=O)NC5=O)C6=O)CC4)CC3)CC2)C1 (stereo partly drawn) [Compound 163, 5-(1′-((R)-3-(4-amino-3-(4-phenoxyphenyl)-1H-pyrazolo(3,4-d)pyrimidin-1-yl)-(1,4′-bipiperidine)-1′-carbonyl)-(4,4′-bipiperidin)-1-yl)-2-(2,6-dioxopiperidin-3-yl)isoindoline-1,3-dione]	–	> 10 µM	1 to 10 µM
